Molecular target: T1, KRAS-G12C (Homo sapiens, UniProt P01116, G12C)
T1 construct: full-length KRAS-G12C, Sm-BiT fused at the N-terminus; with p110α RBD (aa133-314), LgBiT fusion
Experiment: NanoBiT split-luciferase KRAS/RBDα interaction assay in HEK293 cell lysate
Format: biochemical

NanoBiT split-luciferase KRAS/RBDα interaction assay in HEK293 cell lysate: ~ 1 µM
SMILES: Cn1cnc(Cn2ccc3ccc(CNCc4[nH]c5ccccc5c4[C@H]4NC(=O)c5ccc(O)cc54)cc32)c1 [BI-2852]
